Experimental data reported in patent US4886791A, “Soluble derivatives of silybin, a method of preparing them, and pharmaceutical compositions containing them” (priority 1987, dated 1989).
pIC50: −log10 of the molar value. Structures can show the parent of a compound that is named as a salt. Where two headings read alike, the source gives them in different places.

Legend:
[1] = Anti-radical activity in vitro, free radical scavenging (DPPH method); conditions: for pIC50 / IC50: DPPH method; for pIC50: read-out: IC50 (confidence limits p = 0.95); for IC50: corresponds to μM silybin, read-out: IC50, corresponding silybin concentration
Experimental: The anti-radical activity of compound Ia was measured "in vitro" by testing the disappearance of the free 1,1-diphenyl-2-picrylhydrazyl (DPPH) radical (J. Pincemail et al., Stud. Org. Chem. 23, 423, 1985).

[2] = test system: liver poisoning by praseodymium; assay: Antihepatotoxic activity, praseodymium test on the rat (oral administration); format: in vivo
From the text: (§1) In order to test its pharmacological activity, compound (Ia) has been administered intravenously and orally in liver poisoning tests, such as the praseodymium poisoning test on the rat and the phalloidine poisoning test on the mouse, both tests being widely described in the literature for use in studying the antihepatotoxic effect of silymarin and silybin (Vogel, in "Studies in Organic Chemistry, Vol. 11, Flavonoids and Bioflavonoids, page 461, Elsevier 1982).

[3] = Acute toxicity, rat; conditions: in vivo, iv
[4] = Acute toxicity, mouse; conditions: in vivo, iv
[5] = test system: mice subjected to hypobaric anoxia; assay: Hypobaric anoxia: protective effect on survival time of mice subjected to hypoxia (i.p.); format: in vivo, mouse; conditions: for ED50: Mus musculus, ip
From the text: Table 5 gives data showing the effect of compound Ia on the survival time of mice subjected to hypobaric anoxia. In this test (M. Nakanishi et al., Life Sciences, 13, 467, 1973), compound Ia was intraperitoneally injected half an hour before the anoxia.

[6] = test system: liver poisoning by praseodymium; assay: Antihepatotoxic activity, praseodymium test on the rat (i.v. administration); format: in vivo
From the text: as §1
Silybin 11-phosphate was intravenously administered one hour before the praseodymium (10 mg/kg i.v.).

[7] = test system: poisoning with phalloidine; assay: Antihepatotoxic activity, mouse poisoned with phalloidine (i.v. administration); format: in vivo; conditions: for Death Rate: 10 animals/group
From the text: as §1
Silybin dihemisuccinate, when tested at a dose equal to 1/13 of the LD50 i.v. in the mouse, protected only 60% of the mice from death by phalloidine (Table 4).

[8] = test system: Rat; conditions: i.v., A. Desplaces et al., 1975; cited from earlier work
[9] = test system: Mouse; conditions: i.v., A. Desplaces et al., 1975; cited from earlier work
[10] = corresponds to mg/kg silybin, read-out: Survival Time ED50, corresponding silybin dose
[11] = half an hour before the anoxia, read-out: Survival Time ED50 (confidence limits p = 0.95)
[12] = rat, simultaneously with praseodymium

SMILES: COc1cc(C2Oc3cc([C@H]4Oc5cc(O)cc(O)c5C(=O)[C@@H]4O)ccc3OC2CO)ccc1O (stereo partly drawn) [Silybin, silybin]
- pIC50 [1]: 3.49
- ALAT, percentage variation relative to the praseodymium group ([2]; rat, 250 mg/kg): +1%
- ASAT, percentage variation relative to the praseodymium group ([2]; rat, 250 mg/kg): -2%
- Serum enzymes ALAT, m ± s.e. ([2]; rat, 250 mg/kg): 3620 ± 795.8 U/L
- Serum enzymes ASAT, m ± s.e. ([2]; rat, 250 mg/kg): 3680.2 ± 885.6 U/L

SMILES: COc1cc(C2Oc3cc(C4Oc5cc(O)cc(O)c5C(=O)C4O)ccc3OC2COP(=O)(O)O)ccc1O (stereo not drawn) [Silybin 11-phosphate (Ia, sodium salt), sodium salt of silybin 11-phosphate]
- LD50 [3]: 415 mg/kg
- LD50 [4]: 235 mg/kg

SMILES: COc1cc(C2Oc3cc(C4Oc5cc(O)cc(O)c5C(=O)C4O)ccc3OC2COP(=O)(O)O)ccc1O (stereo not drawn) [Silybin 11-phosphate (Ia), Silybin 11-phosphate]
- Activity in prolonging the survival time [5]: active in prolonging the survival time
- Activity in prolonging the survival time compared with succinylsilybin [5]: significantly more active than succinylsilybin
- ED50 [5, 10]: 36.3 mg/kg
- ED50 [5, 11]: 45.7 mg/kg
- IC50 [1]: 85 µM
- pIC50 [1]: 3.97
- Activity in destroying free radicals ([1]; in vitro, DPPH): significantly active in destroying free radicals
- Anti-radical activity relative to silybin or succinylsilybin ([1]; more active than either silybin or succinylsilybin): about 3.5 times
- Pharmacological activity compared with silybin dihemisuccinate ([6]; intravenous, liver poisoning tests (praseodymium rat, phalloidine mouse)): much higher pharmacological activity than silybin dihemisuccinate
- ALAT, percentage variation relative to the praseodymium group ([6]; rat, i.v., 6.32 mg/kg): -71%
- ASAT, percentage variation relative to the praseodymium group ([6]; rat, i.v., 6.32 mg/kg): -54%
- Liver Wt, m ± s.e. ([6]; rat, i.v., 6.32 mg/kg): 12.6 ± 0.5 g
- Liver Wt, percentage variation relative to the praseodymium group ([6]; rat, i.v., 6.32 mg/kg): -10%
- Liver triglycerides, m ± s.e. ([6]; rat, i.v., 6.32 mg/kg): 4792.4 ± 1068.8
- Liver triglycerides, percentage variation relative to the praseodymium group ([6]; rat, i.v., 6.32 mg/kg): -41%
- Serum enzymes ALAT, m ± s.e. ([6]; rat, i.v., 6.32 mg/kg): 495.0 ± 244.6 U/L
- Serum enzymes ASAT, m ± s.e. ([6]; rat, i.v., 6.32 mg/kg, 1 h before praseodymium 10 mg/kg i.v.): 877.0 ± 420.5 U/L
- ALAT, percentage variation relative to the praseodymium group ([6]; rat, i.v., 15.8 mg/kg): -97%
- ASAT, percentage variation relative to the praseodymium group ([6]; rat, i.v., 15.8 mg/kg): -95%
- Liver Wt, m ± s.e. ([6]; rat, i.v., 15.8 mg/kg): 8.7 ± 0.2 g
- Liver Wt, percentage variation relative to the praseodymium group ([6]; rat, i.v., 15.8 mg/kg): -30%
- Liver triglycerides, m ± s.e. ([6]; rat, i.v., 15.8 mg/kg): 672.7 ± 100.5
- Liver triglycerides, percentage variation relative to the praseodymium group ([6]; rat, i.v., 15.8 mg/kg): -92%
- Serum enzymes ALAT, m ± s.e. ([6]; rat, i.v., 15.8 mg/kg): 31.3 ± 3.2 U/L
- Serum enzymes ASAT, m ± s.e. ([6]; rat, i.v., 15.8 mg/kg): 90.9 ± 8.9 U/L
- Effect on praseodymium-induced increases ([6]; rat, i.v., dose equal to 1/26 of the LD50): inhibited the increase in activity of the two serum transaminases and the increase in the weight of the liver and the hepatic triglycerides
- Activity in the praseodymium test ([6]; rat, i.v., dose of 1/65 of the LD50): Activity was maintained
- Activity compared with silybin dihemisuccinate in the phalloidine test ([7]; 63 and 126 mg/kg i.v.): markedly superior to silybin dihemisuccinate
- Percentage of deaths ([7]; i.v., 15.8 mg/kg): 0%
- Death Rate ([7]; i.v., 15.8 mg/kg, 1 h before phalloidine 3 mg/kg i.p.): 0
- Protection from death by phalloidine ([7]; i.v., dose equal to 1/15 of the LD50 i.v.): protected all the mice from death
- Antihepatotoxic activity compared with silybin [2]: greater than that of silybin
- ALAT, percentage variation relative to the praseodymium group ([2]; rat, 315 mg/kg): -78%
- ASAT, percentage variation relative to the praseodymium group ([2]; rat, 315 mg/kg): -75%
- Serum enzymes ALAT, m ± s.e. ([2]; rat, 315 mg/kg): 783.3 ± 304.6 U/L
- Serum enzymes ASAT, m ± s.e. ([2]; rat, 315 mg/kg, simultaneously with praseodymium): 931.7 ± 299.0 U/L
- Activity in counteracting the increase in the two serum transaminases compared with silybin [2, 12]: considerably more active than silybin alone
- Activity in counteracting the increase in the two serum transaminases compared with silybin dihemisuccinate [2, 12]: as active as silybin dihemisuccinate

SMILES: COc1cc(C2Oc3cc(C4Oc5cc(O)cc(O)c5C(=O)C4OC(=O)CCC(=O)O)ccc3OC2COC(=O)CCC(=O)O)ccc1O (stereo not drawn) [Silybin dihemisuccinate, silybin dihemisuccinate]
- ED50 [5, 10]: 97.3 mg/kg
- ED50 [5, 11]: 108 mg/kg
- LD50 [8]: 920(1) (906-940) mg/kg
- IC50 [1]: 322 µM
- pIC50 [1]: 3.25
- ALAT, percentage variation relative to the praseodymium group ([6]; rat, i.v., 7.5 mg/kg): -21%
- ASAT, percentage variation relative to the praseodymium group ([6]; rat, i.v., 7.5 mg/kg): -11%
- Liver Wt, m ± s.e. ([6]; rat, i.v., 7.5 mg/kg): 12.6 ± 0.5 g
- Liver Wt, percentage variation relative to the praseodymium group ([6]; rat, i.v., 7.5 mg/kg): -3%
- Liver triglycerides, m ± s.e. ([6]; rat, i.v., 7.5 mg/kg): 6692.8 ± 738.3
- Liver triglycerides, percentage variation relative to the praseodymium group ([6]; rat, i.v., 7.5 mg/kg): -18%
- Serum enzymes ALAT, m ± s.e. ([6]; rat, i.v., 7.5 mg/kg): 1366. ± 343.1 U/L
- Serum enzymes ASAT, m ± s.e. ([6]; rat, i.v., 7.5 mg/kg): 1672.0 ± 292.8 U/L
- ALAT, percentage variation relative to the praseodymium group ([6]; rat, i.v., 37.5 mg/kg): +64%
- ASAT, percentage variation relative to the praseodymium group ([6]; rat, i.v., 37.5 mg/kg): +38%
- Liver Wt, m ± s.e. ([6]; rat, i.v., 37.5 mg/kg): 12.6 ± 0.4 g
- Liver Wt, percentage variation relative to the praseodymium group ([6]; rat, i.v., 37.5 mg/kg): +1%
- Liver triglycerides, m ± s.e. ([6]; rat, i.v., 37.5 mg/kg): 7083.9 ± 747.5
- Liver triglycerides, percentage variation relative to the praseodymium group ([6]; rat, i.v., 37.5 mg/kg): -19%
- Serum enzymes ALAT, m ± s.e. ([6]; rat, i.v., 37.5 mg/kg): 1988.3 ± 465.3 U/L
- Serum enzymes ASAT, m ± s.e. ([6]; rat, i.v., 37.5 mg/kg): 2600.0 ± 570.9 U/L
- ALAT, percentage variation relative to the praseodymium group ([6]; rat, i.v., 75 mg/kg): -65%
- ASAT, percentage variation relative to the praseodymium group ([6]; rat, i.v., 75 mg/kg): -53%
- Liver Wt, m ± s.e. ([6]; rat, i.v., 75 mg/kg): 12.1 ± 0.5 g
- Liver Wt, percentage variation relative to the praseodymium group ([6]; rat, i.v., 75 mg/kg): -1%
- Liver triglycerides, m ± s.e. ([6]; rat, i.v., 75 mg/kg): 9221.0 ± 910.4
- Liver triglycerides, percentage variation relative to the praseodymium group ([6]; rat, i.v., 75 mg/kg): +11%
- Serum enzymes ALAT, m ± s.e. ([6]; rat, i.v., 75 mg/kg): 422.9 ± 85.6 U/L
- Serum enzymes ASAT, m ± s.e. ([6]; rat, i.v., 75 mg/kg): 887.0 ± 63.1 U/L
- Activity in the praseodymium test ([6]; rat, i.v., lower doses comparable with those of compound (Ia)): no activity
- Dose for preventing praseodymium poisoning ([6]; rat, i.v., LD50 reported in the literature): 1/12
- Percentage of deaths ([7]; i.v., 75.0 mg/kg): 40%
- Death Rate ([7]; i.v., 75.0 mg/kg): 4
- Mice protected from death by phalloidine ([7]; i.v., dose equal to 1/13 of the LD50 i.v.): 60%
- ALAT, percentage variation relative to the praseodymium group ([2]; rat, 375 mg/kg): -75%
- ASAT, percentage variation relative to the praseodymium group ([2]; rat, 375 mg/kg): -70%
- Serum enzymes ALAT, m ± s.e. ([2]; rat, 375 mg/kg): 886.7 ± 395.1 U/L
- Serum enzymes ASAT, m ± s.e. ([2]; rat, 375 mg/kg): 1118.3 ± 512.0 U/L
- LD50 [9]: 970(1) (931-1010) mg/kg
